For one data set, the target named is Aβ1-42 peptides (Homo sapiens, UniProt P05067). The experiment in a line: Electron microscopy of Aβ1-42 fibril formation in presence of inhibitor protein. Format: biochemical. To be noted: equimolar ratio with 13C-labeled Aβ1-42 peptides; images over two weeks. As for the experimental part: (§1) The amyloid fibril inhibitor protein (SEQ ID NO: 1) was incubated at an equimolar ratio with ^13C-labeled Aβ1-42 peptides. During this incubation, electron microscopic images were taken over the course of two weeks in accordance with Example 6. […] In fact, suspensions of Aβ1-42 protein (SEQ ID NO: 157) prepared at pH 7 were normally cloudy and formed gels during fibril growth.
Fibrillized amyloid samples were prepared by incubation of aqueous solutions at an Aβ1-42 peptide concentration of approximately 0.2 mM in 1.0 mM phosphate buffer at pH 7.0 with the pH adjusted as necessary by dropwise addition of dilute NaOH or acetic acid. 0.01% NaN3 was added to inhibit bacterial and fungal growth. The solution was incubated for approximately 10 days at a temperature of 24° C., with gentle rocking (200 rpm). Aliquots of incubated solutions were taken for electron microscopic observations after 3-5 days. Amyloid fibril formation was verified by electron microscopic images of negatively stained samples.
For electron microscopic analysis, a 5 μL sample of the amyloid fibril was placed on a carbon coated Foamvar 200 mesh copper grid. The sample was allowed to stand for 15-30 sec and any excess solution was removed by wicking away. The samples were negatively stained with 2% (w/v) uranyl acetate. The excess was wicked away and allowed to dry. […]

Data set [1] concerns the target Aβ1-42 protein (SEQ ID NO: 157) (Homo sapiens, UniProt P05067). The experiment in a line: Appearance (clearing, gel formation) of Aβ1-42 suspensions at pH 7. Format: biochemical. The method, then: as §1
The next data set concerns the target T1, GpA70-86 fibrils (Homo sapiens, UniProt P02724).
T1 construct: comprising a 17 amino acid peptide corresponding to amino acid residues 70-86
As to the kind of experiment: Glycophorin A transmembrane peptide (GpA70-86) fibril formation, solid-state NMR. Format: biochemical. Conditions: for ability to inhibit amyloid fibril formation: "this assay system" of Example 2. As for the experimental part: In the experiments below, magic-angle-spinning (MAS) NMR was performed at 360 and 600 MHz on Bruker Avance NMR spectrometers using 4 mm MAS rotors. The cross polarization contact time was 2 ms, two-pulse phase-modulated (TPPM) decoupling was used during the evolution and mixing periods and the dipolar-assisted rotational-resonance (DARR) mixing time was 1 sec. The proton field strength was set to the n =1 rotational resonance condition during the mixing period. Takegoshi et al., “^13C-^1H Dipolar-Driven ^13C-^13C Recoupling Without ^13C RF Irradiation In Nuclear Magnetic Resonance Of Rotating Solids” J. Chem. Phys. 118:2325-2341 (2003). DARR gives rise to off-diagonal cross peaks in the 2D NMR spectra if the ^13C . . . ^13C contacts are less than 6 A apart.
This experiment tested the idea that the large side chain amino acids on one sheet dovetail into the grooves formed by glycine on an opposing β-sheet using a mixture of two differently labeled pools of GpA70-86 peptide. A first set of peptides were labeled with a single ^13C isotope label at the backbone carbonyl carbon of Gly^79. A second set of peptides were ^13C -labeled at the Met^81 methyl side chain group. Computer modeling of the GpA70-86 peptide β-sandwich predicted an inter-β-sheet distance of 3-5 Å between the carbonyl ^13C of Gly^79 and the ^13CH3 of Met^81. The intra-sheet distance, however, was predicted to be ˜8-10 Å, and outside of the detection range of the NMR experiment used. Solid-state NMR techniques measured the intermolecular distance between Met^81 13C-labeled methyl side chains and the carbonyl ^13C-Gly^79 on adjacent β-sheets.
A truncated […], that mimics Aβ1-42 protein, was incubated with a glycine-rich transmembrane peptide (i.e., similar to APP). This target peptide corresponds to glycophorin A's transmembrane domain comprising a 17 amino acid peptide corresponding to amino acid residues 70-86. Glycophorin A, as a complete protein, is not known to form amyloid-like fibrils.

The target of data set [2] is T2, Aβ1-42 peptide (Homo sapiens, UniProt P05067). The experiment in a line: Fluorescence thioflavin T assay of amyloid fibrillization. Format: biochemical. The method, then: Amyloid fibrillization was measured by the fluorescence thioflavin T assay. Levine III, H, Methods in Enzymology 309: 274-305 (1999). The Aβ1-42 peptide was dissolved and fibrillization was followed over the course of two weeks by monitoring thioflavin T fluorescence. Hou et al., J. Am. Chem. Soc. in press (2004).
The effect of the inhibitor plateaus after three days and shown to be 70%±5 % effective in preventing fibrillization.
Inhibition activities were also measured by fluorescence intensity over time at the following molar ratios of Aβ1-42 peptide to SEQ ID NO:1 (I1) 1:0; 1:1; 1:5; and 1:20. (FIG. 7). […] Soto, et al., Nature Medicine 4:822-826 (1998); and Soto et al., Biochem. Biophys. Res. Comm. 226:672-680 (1996).

In data set [3] the target is Preformed amyloid fibrils comprising Aβ1-42 peptides (Homo sapiens, UniProt P05067). As to the kind of experiment: Depolymerization of preformed amyloid fibrils (fluorescence intensity). Format: biochemical. Conditions: 1:20 molar ratio; for depolymerization of pre-existing Aβ1-42 fibrils (words): FIG. 8. The method, then: Preformed amyloid fibrils comprising Aβ1-42 peptides were incubated with and without SEQ ID NO: 1 (I1) a 1:20 molar ratio.

Data set [4] in a line: Neurotoxicity of inhibitor peptides alone in neuronal cell culture (cell count). Format: cell-based. Conditions: neuronal cell culture, 48 Hour Incubation, read-out: % Survival. As for the experimental part: (§2) An in vitro neuronal cell culture was grown to confluence and studied by cell count as a measure of neurotoxicity. Neurotoxicity was observed following one or two days of incubation with either polymerized Aβ1-42 peptide into amyloid fibrils (ag) or free (i.e., non-polymerized) Aβ1-42 peptides (sol). (See FIG. 9).

Data set [5] concerns in vitro neuronal cell culture. Described as above. Format: cell-based. To be noted: peptide alone. The method, then:
as §2

For data set [6], the system named is Aβ1-42 peptide induced neurotoxicity in neuronal cell culture. As to the kind of experiment: Protection against Aβ1-42 peptide induced neurotoxicity in neuronal cell culture. Conditions: for inhibition of Aβ1-42 peptide induced neurotoxicity: 1:10 and 1:20; for amyloid plaque inhibition activity with protected termini: N- or C-terminal protected or both protected, data not shown; for reduction of Aβ1-42 neurotoxicity: added before Aβ1-42 peptides were allowed to polymerize. Format: cell-based. As for the experimental part: These peptides were tested in cell toxicity assays for their ability to prevent cell death (i.e., for example, by apoptotic mechanisms) induced by the Aβ1-42 peptide (SEQ ID NO:157).
as §2
(See FIG. 11A). […] (See FIG. 11B).

In data set [7] the target is T2, Aβ1-42 peptide. To be noted: Soto et al. 1996, 1998; cited from earlier work.
Where [8] appears, read: 24 hours of polymerization / 24 hour incubation, FIG. 10A, 10B.

Results on three substances are retold here after patent US20060062797A1, “Novel materials and methods for the treatment of Alzheimer's disease patients” (The Research Foundation of State University of New York at …, priority 2004, published 2006).

Like-named read-outs stand apart in the source and are kept apart here. No end group written: not given here.

T2 sequence (P05067 672-713): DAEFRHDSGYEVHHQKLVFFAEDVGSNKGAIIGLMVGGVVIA
Preformed amyloid fibrils comprising Aβ1-42 peptides, sequence (P05067 672-713): as above
Aβ1-42 protein (SEQ ID NO: 157), sequence (P05067 672-713): as above
Aβ1-42 peptides, sequence (P05067 672-713): as above

In the case of H-RGTFEGKF-NH2 [SEQ ID NO: 1], at Aβ1-42 peptides, the “fibrils in electron microscopic images” value was “no detectable fibrils”. In addition, the “gel formation of Aβ1-42 suspensions” value in data set [1] (pH 7, over a two week period or longer) is on record as “did not form gel compositions”. In [1] (suspensions prepared at pH 7), the “time until Aβ1-42 suspensions became clear after addition” value is listed as “less than 5 seconds”. Besides, the “glycophorin A transmembrane peptide fibril formation” value at GpA70-86 fibrils (1:1 molar ratio) is on record as “can be blocked”. Moreover, the “ability to inhibit amyloid fibril formation” value at GpA70-86 fibrils was “most effective”. For the same substance, the “NMR cross peak between Met81 and Gly79 of GpA70-86 fibrils” value at GpA70-86 fibrils (equimolar amount of inhibitor, FIG. 4D) was “absent”. Besides, the “inhibition of Aβ1-42 fibrillization / amyloid fibril polymerization (words)” value against Aβ1-42 peptide [2] (FIG. 6, FIG. 7) is “inhibits amyloid fibril polymerization in a time and dose-dependent manner”; on Aβ1-42 peptide [2] (FIG. 6, FIG. 7, listed as SEQ ID NO:1), “inhibits fibrillization”. The “depolymerization of pre-existing Aβ1-42 fibrils (words)” value in data set [3] is reported as “depolymerizes pre-existing amyloid fibrils”; in data set [3] (listed as SEQ ID NO:1), “depolymerizes Aβ1-42 fibrils”. In data set [3] (after Day 4), the “depolymerization rate and polymerization rate” value was “apparently reaches equilibrium”. For the same substance, the depolymerization rate result in [3] (first four incubation days) is on record as “apparent linear depolymerization rate”. Moreover, the viability at 48 h in data set [4] (10X) worked out at 91.7 ± 5.6%; in data set [4] (20X), 90.5 ± 6.4%. In addition, the “toxicity of peptide by itself to neuronal cell culture” value in [5] is listed as “not toxic by themselves”; in data set [5] (listed as I1), “not present”. Moreover, the “inhibition of Aβ1-42 peptide induced neurotoxicity” value in data set [6] (setting [8]) is reported as “Neither SEQ ID NO: 1 or SEQ ID NO: 160 reduced neurotoxicity”; in [6] (24 hours of polymerization / 24 hour incubation, FIG. 10A, 10B, listed as SEQ ID NO:1) it was “does not inhibit”; in [6] (48 hours of polymerization / 48 hour incubation, FIG. 10C, 10D), “dose-dependently inhibited neurotoxicity”; in [6] (48 hours of polymerization / 48 hour incubation, FIG. 10C, 10D, listed as SEQ ID NO:1), “does inhibit”. Further, the “amyloid plaque inhibition activity with protected termini” value in data set [6] is recorded as “retain amyloid plaque inhibition activity”. The “reduction of Aβ1-42 neurotoxicity” value in [6] is “Neither SEQ ID NO: 1 or SEQ ID NO: 160 reduced neurotoxicity”.
As to “H-LPFFD-NH2 [SEQ ID NO: 160, NH2-LPFFD-NH2, reference compound]”, the viability at 48 h in data set [4] (10X) came to 97.9 ± 4.2%; in data set [4] (20X), 97.8 ± 6.6%. Further, the “toxicity of peptide by itself to neuronal cell culture” value is on record as “not toxic by themselves” in data set [5] and “not present” in [5] (listed as I6). For the same substance, the “inhibition of Aβ1-42 peptide induced neurotoxicity” value is on record as “Neither SEQ ID NO: 1 or SEQ ID NO: 160 reduced neurotoxicity” in data set [6] (setting [8]); “does not inhibit” in data set [6] (24 hours of polymerization / 24 hour incubation, FIG. 10A, 10B, listed as SEQ ID NO:160); “does not inhibit” in data set [6] (48 hours of polymerization / 48 hour incubation, FIG. 10C, 10D, listed as SEQ ID NO:160). Besides, the “reduction of Aβ1-42 neurotoxicity” value in data set [6] is recorded as “Neither SEQ ID NO: 1 or SEQ ID NO: 160 reduced neurotoxicity”. Moreover, on Aβ1-42 peptide [7], the “reported inhibitor activity (literature)” value is “effective inhibitor”.
On to RATFEAKF-NH2 [SEQ ID NO: 19], for which, in the data set with GpA70-86 fibrils, the “ability to inhibit amyloid fibril formation” value is on record as “most effective”. Moreover, the “amyloid plaque inhibition activity with protected termini” value in [6] is given as “retain amyloid plaque inhibition activity”.
